± gives the standard deviation of the averaged measurements.
How the values were obtained:
ST8814 [1] = experiment: % inhibition of CellTiter-Glo viability at highest tested concentration (72 h), relative to DMSO and benzethonium chloride controls; higher = more inhibition
Outline: (§1)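 Viability was scored by CellTiter-Glo ATP luminescence, scaled from vehicle to positive-control wells, with duplicates averaged where present. The cells, MPNST lines and primary human Schwann cells at 750–1000 per well, sat 72 h at 37 °C, 5% CO2, in 384-well plates preprinted with each compound at five concentrations in 10-fold steps. Four-parameter logistic fits were run on the data. These fits give drug sensitivity score and relative IC50 censored at the top concentration, and percent inhibition is reported at the top concentration.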

HS-PSS [2] = experiment: as above
Outline: as §1

[3] = tested on: HSC2 (primary human Schwann cells); experiment: as above
Outline: as §1

HS-Sch-2 [4] = experiment: as above
Outline: as §1

YST-1 [5] = experiment: as above
Outline: as §1

S1507-2 [6] = experiment: as above
Outline: as §1

[7] = tested on: HSC1 (primary human Schwann cells); experiment: as above
Outline: as §1

STS26T [8] = experiment: as above
Outline: as §1

S462 [9] = experiment: as above
Outline: as §1

ST8814 [10] = experiment: drug sensitivity score (DSS, CellTox-Green cytotoxicity, 72 h) (DSS (dimensionless)); higher = more cytotoxic; extreme values may be limits of the assay
Outline: (§2)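 MPNST cell lines and primary human Schwann cells were incubated 72 h at 37 °C in 384-well plates holding five 10-fold compound dilutions. CellTox-Green was added before seeding at a final 1:1000 dilution and reported fluorescence from DNA released by disrupted cells. Signals were scaled to vehicle and positive-control wells, and cultures failing plate quality control were dropped. Drug sensitivity score and relative IC50 come from four-parameter logistic fits, with IC50 censored at the top concentration.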

HS-PSS [11] = experiment: as above
Outline: as §2

[12] = tested on: HSC2 (primary human Schwann cells); experiment: as above
Outline: as §2

S1507-2 [13] = experiment: as above
Outline: as §2

[14] = tested on: HSC1 (primary human Schwann cells); experiment: as above
Outline: as §2

STS26T [15] = experiment: as above
Outline: as §2

ST8814 [16] = experiment: drug sensitivity score (DSS, CellTiter-Glo viability, 72 h) (DSS (dimensionless)); higher = more sensitive; extreme values may be limits of the assay
Outline: as §1

HS-PSS [17] = experiment: as above
Outline: as §1

[18] = tested on: HSC2 (primary human Schwann cells); experiment: as above
Outline: as §1

HS-Sch-2 [19] = experiment: as above
Outline: as §1

YST-1 [20] = experiment: as above
Outline: as §1

S1507-2 [21] = experiment: as above
Outline: as §1

[22] = tested on: HSC1 (primary human Schwann cells); experiment: as above
Outline: as §1

STS26T [23] = experiment: as above
Outline: as §1

S462 [24] = experiment: as above
Outline: as §1

SMILES | % inhibition (ST8814 [1]) [%] | % inhibition (HS-PSS [2]) [%] | % inhibition [3] [%] | % inhibition (HS-Sch-2 [4]) [%] | % inhibition (YST-1 [5]) [%] | % inhibition (S1507-2 [6]) [%] | % inhibition [7] [%] | % inhibition (STS26T [8]) [%] | % inhibition (S462 [9]) [%] | drug sensitivity score (ST8814 [10]) | drug sensitivity score (HS-PSS [11]) | drug sensitivity score [12] | drug sensitivity score (S1507-2 [13]) | drug sensitivity score [14] | drug sensitivity score (STS26T [15]) | drug sensitivity score (ST8814 [16]) | drug sensitivity score (HS-PSS [17]) | drug sensitivity score [18] | drug sensitivity score (HS-Sch-2 [19]) | drug sensitivity score (YST-1 [20]) | drug sensitivity score (S1507-2 [21]) | drug sensitivity score [22] | drug sensitivity score (STS26T [23]) | drug sensitivity score (S462 [24])
NC(=O)c1ccc(I)c([N+](=O)[O-])c1 [Iniparib] (max concentration tested 10000 nM) | -1.13 | -1.31 | 1.97 | 1.26 | -4.35 | 9.46 ± 1.8 | -4.93 | 7.72 | 13.9 ± 7.7 | 0 | 0 | 0 | 6.29 ± 8.9 | 0 | 0.221 | 0 | 0 | 0 | 0 | 0 | 0 | 0 | 0 | 0
C[C@@H]1CCN(C(=O)CC#N)C[C@@H]1N(C)c1ncnc2[nH]ccc12 [Tofacitinib] (max concentration tested 5000 nM) | 6.57 | -4.37 | 25.1 | -3.98 | -2.9 | 0.251 ± 0.54 | 11.7 | 10.4 | 17.1 ± 3.5 | 0 | 0 | 0 | 0.083 ± 0.12 | 0 | 0 | 0 | 0 | 1.53 | 0.89 | 0.89 | 0.398 ± 0.56 | 3.18 | 0.0007 | 1.27 ± 0.56
Cc1c2oc3c(C)ccc(C(=O)N[C@@H]4C(=O)N[C@H](C(C)C)C(=O)N5CCC[C@H]5C(=O)N(C)CC(=O)N(C)[C@@H](C(C)C)C(=O)O[C@@H]4C)c3nc-2c(C(=O)N[C@@H]2C(=O)N[C@H](C(C)C)C(=O)N3CCC[C@H]3C(=O)N(C)CC(=O)N(C)[C@@H](C(C)C)C(=O)O[C@@H]2C)c(N)c1=O [Dactinomycin] (max concentration tested 1000 nM) | 85.6 | 86.7 | 89.2 | 102 | 101 | 87 ± 3.5 | 83 | 99 | 99.1 ± 1.6 | 5.68 | 6.19 | 14.7 | 5.68 ± 3.9 | 12.7 | 25.8 | 25.3 | 25.1 | 33.5 | 32.5 | 37.4 | 23.4 ± 0.57 | 30.8 | 31.9 | 32.3 ± 1.7
Cc1cc2c(C(C)C)c(O)c(O)c(C=O)c2c(O)c1-c1c(C)cc2c(C(C)C)c(O)c(O)c(C=O)c2c1O [AT 101] (max concentration tested 100000 nM) | 95.4 | 101 | 93.6 | 101 | 101 | 95.6 ± 1.6 | 94.7 | 96.6 | 95.03 ± 0.8 | 0.0013 | 2.34 | 0 | 0 | 4.09 | 0 | 12.6 | 9.43 | 20.2 | 15.1 | 15.2 | 8.69 ± 1.2 | 16.2 | 11.8 | 16 ± 1.1
Clc1ccc(C(c2ccccc2Cl)C(Cl)Cl)cc1 (configuration not stated) [Mitotane] (max concentration tested 10000 nM) | 6.22 | -3.05 | 1.58 | 1.46 | 0.23 | 2.14 ± 4.9 | 4.91 | 4.66 | 2.7 ± 7.9 | 0 | 0 | 0 | 3.77 ± 5.3 | 0 | 0 | 0 | 0 | 0 | 0 | 0 | 0 | 0 | 0 | 0
CNC(=O)c1ccc(N2C(=S)N(c3cnc(C#N)c(C(F)(F)F)c3)C(=O)C23CCC3)cc1F [ARN 509] (max concentration tested 10000 nM) | 9.08 | 11.9 | -11.5 | 3.75 | 5.31 | 1.5 ± 14 | -4.96 | 2.87 | 5.15 ± 0.46 | 0 | 0 | 0 | 0.0953 ± 0.14 | 0 | 0.407 | 0 | 2.56 | 0 | 0 | 0 | 0 | 0 | 0 | 0
CN1CCN(c2nc(C3=C(c4c[nH]c5ccccc45)C(=O)NC3=O)c3ccccc3n2)CC1 [Sotrastaurin] (max concentration tested 10000 nM) | 7.08 | 3.47 | -36.1 | 5.75 | 17.7 | 6.26 ± 6.6 | -32.7 | -3.71 | 11.8 ± 2 | 0 | 0 | 0 | 0 | 0 | 0 | 0.337 | 0 | 0 | 0 | 0.45 | 0.00765 ± 0.011 | 0 | 0 | 0.0588 ± 0.083
CCc1c(C(=O)C(N)=O)c2c(OCC(=O)O)cccc2n1Cc1ccccc1 [Varespladib] (max concentration tested 10000 nM) | 5.74 | 4.52 | 9.85 | 0.4 | 3.3 | 6.19 ± 5.8 | 13.8 | 7.98 | 7.05 ± 10 | 0 | 0 | 0 | 0.519 ± 0.73 | 0 | 0 | 0 | 0 | 0 | 0 | 0 | 0.0077 ± 0.011 | 0.748 | 0 | 0.641 ± 0.91
Cn1cnc(-c2cc3nccc(Oc4ccc(NC(=S)NC(=O)Cc5ccccc5)cc4F)c3s2)c1 [MGCD-265] (max concentration tested 10000 nM) | 29.8 | 23.4 | 21.3 | 29.8 | 16.1 | 40 ± 2.4 | 11 | 11.4 | 40.6 ± 5.4 | 0.0251 | 0 | 0.0906 | 3.76 ± 5.3 | 0 | 0 | 3.47 | 2.02 | 0.731 | 2.2 | 0.19 | 4.92 ± 1.6 | 0.016 | 0 | 2.93 ± 0.53
COc1ccccc1S(=O)(=O)Nc1ccc2c(c1)CN(C)C(=O)N2 [PFI-1] (max concentration tested 10000 nM) | 63.6 | 48.1 | 53.7 | 58.4 | 56.6 | 69.2 ± 3.9 | 62.2 | 39.5 | 53.6 ± 4.7 | 1.77 | 0 | 0 | 2.07 ± 1.1 | 0 | 0 | 5.94 | 2.11 | 4.03 | 5.21 | 4.93 | 6.21 ± 0.6 | 3.78 | 3.53 | 4.68 ± 0.9
COc1nc(N)nc2c1ncn2[C@@H]1O[C@H](CO)[C@@H](O)[C@@H]1O [Nelarabine] (max concentration tested 10000 nM) | -1.03 | -6.14 | 4.25 | 6.44 | -10.9 | 7.84 ± 7.8 | 1.53 | 6.48 | 8.35 ± 0.2 | 0 | 0 | 0.0142 | 3.71 ± 5.2 | 0 | 0 | 0 | 0 | 0 | 0 | 0 | 1.62 ± 2.3 | 0 | 0 | 0
Cn1cnc2c(F)c(Nc3ccc(Br)cc3Cl)c(C(=O)NOCCO)cc21 [Selumetinib] (max concentration tested 10000 nM) | 51.4 | 12.8 | 44.1 | 35.6 | 5.28 | 50.8 ± 4.4 | 41.3 | 33.6 | 51.8 ± 5.1 | 1.43 | 0 | 0 | 0.984 ± 0.39 | 0 | 0 | 5.82 | 0.02 | 3.74 | 2.54 | 0 | 7.78 ± 3.3 | 2.51 | 4.18 | 5.86 ± 0.93
CNC(=O)c1ccc(N2C(=S)N(c3ccc(C#N)c(C(F)(F)F)c3)C(=O)C2(C)C)cc1F [Enzalutamide] (max concentration tested 10000 nM) | 11.6 | 7.35 | -3.12 | -3.43 | 4.16 | 14.2 ± 18 | 14.3 | 3.2 | -3 ± 1.3 | 0 | 0 | 0 | 2.11 ± 3 | 0 | 0 | 0.0064 | 0 | 0 | 0 | 0 | 1.03 ± 1.4 | 0.165 | 0 | 0
